According to ChEMBL document CHEMBL1145534 (2007):
Converted amounts (≈) assume the structure as drawn.

Columns and labels:
Assay type in all cases: functional
[1] = system: Streptococcus intermedius; assay: Antimicrobial activity against viridans group Streptococcus intermedius at 0.25 ug/ml by broth microdilution method
Streptococcus gordonii = assay: Antimicrobial activity against viridans group Streptococcus gordonii by broth microdilution method
Streptococcus sanguinis = assay: Antimicrobial activity against viridans group Streptococcus sanguinis at 2 ug/ml by broth microdilution method
[2] = system: Streptococcus intermedius; assay: Antimicrobial activity against viridans group Streptococcus intermedius by broth microdilution method
[3] = system: Enterococcus casseliflavus; assay: Antimicrobial activity against Enterococcus casseliflavus at 4 ug/ml by broth microdilution method
Listeria monocytogenes = assay: Antimicrobial activity against Listeria monocytogenes at <= 0.06 ug/ml by broth microdilution method
Enterococcus hirae [4] = assay: Antimicrobial activity against Enterococcus hirae at 0.25 ug/ml by broth microdilution method
Enterococcus hirae [5] = assay: Antimicrobial activity against Enterococcus hirae at 1 ug/ml by broth microdilution method
Corynebacterium sp. [6] = assay: Antimicrobial activity against Corynebacterium spp. at <= 0.06 ug/ml by broth microdilution method
Enterococcus gallinarum = assay: Antimicrobial activity against Enterococcus gallinarum at 0.25 ug/ml by broth microdilution method
Streptococcus oralis = assay: Antimicrobial activity against viridans group Streptococcus oralis at 0.25 ug/ml by broth microdilution method
Aerococcus = assay: Antimicrobial activity against Aerococcus spp. at 2 ug/ml by broth microdilution method
Streptococcus = assay: Antimicrobial activity against beta hemolytic Streptococcus group C at 0.5 ug/ml by broth microdilution method
Corynebacterium sp. [7] = assay: Antimicrobial activity against Corynebacterium spp. at 2 ug/ml by broth microdilution method
Enterococcus avium [8] = assay: Antimicrobial activity against Enterococcus avium at 0.12 ug/ml by broth microdilution method
Enterococcus avium [9] = assay: Antimicrobial activity against Enterococcus avium at 2 ug/ml by broth microdilution method
[10] = system: Streptococcus intermedius; assay: Antimicrobial activity against viridans group Streptococcus intermedius at <= 0.06 ug/ml by broth microdilution method
[11] = system: Streptococcus constellatus; assay: Antimicrobial activity against viridans group Streptococcus constellatus at 2 ug/ml by broth microdilution method
Corynebacterium striatum [12] = assay: Antimicrobial activity against Corynebacterium striatum at 0.5 ug/ml by broth microdilution method
Enterococcus avium [13] = assay: Antimicrobial activity against Enterococcus avium by broth microdilution method
Enterococcus avium [14] = assay: Antimicrobial activity against Enterococcus avium at 0.5 ug/ml by broth microdilution method
Streptococcus equinus = assay: Antimicrobial activity against viridans group Streptococcus bovis at 0.12 ug/ml by broth microdilution method
[15] = system: Streptococcus parasanguinis; assay: Antimicrobial activity against viridans group Streptococcus parasanguis at 1 ug/ml by broth microdilution method
Bacillus sp. [16] = assay: Antimicrobial activity against Bacillus spp. at 0.5 ug/ml by broth microdilution method; details: Bacillus sp. (in: firmicutes)
Bacillus sp. [17] = assay: Antimicrobial activity against Bacillus spp. at <= 0.06 ug/ml by broth microdilution method
Micrococcus luteus = assay: Antimicrobial activity against Micrococcus luteus at 1 ug/ml by broth microdilution method
[18] = system: Enterococcus casseliflavus; assay: Antimicrobial activity against Enterococcus casseliflavus at 0.12 ug/ml by broth microdilution method
[19] = system: Streptococcus constellatus; assay: Antimicrobial activity against viridans group Streptococcus constellatus at 0.12 ug/ml by broth microdilution method
Rothia mucilaginosa = assay: Antimicrobial activity against Rothia mucilaginosa by broth microdilution method
Bacillus sp. [20] = assay: Antimicrobial activity against Bacillus spp. by broth microdilution method; details: Bacillus sp. (in: firmicutes)
Corynebacterium striatum [21] = assay: Antimicrobial activity against Corynebacterium striatum at 0.25 ug/ml by broth microdilution method
Bacillus cereus = assay: Antimicrobial activity against Bacillus cereus at 0.5 ug/ml by broth microdilution method
[22] = system: Streptococcus intermedius; assay: Antimicrobial activity against viridans group Streptococcus intermedius at 2 ug/ml by broth microdilution method
Enterococcus avium [23] = assay: Antimicrobial activity against Enterococcus avium at <= 0.06 ug/ml by broth microdilution method
[24] = system: Enterococcus casseliflavus; assay: Antimicrobial activity against Enterococcus casseliflavus by broth microdilution method

Compound: CC(=O)NC[C@H]1CN(c2ccc(N3CCOCC3)c(F)c2)C(=O)O1 [LINEZOLID]
- inhibition at 0.25 µg/mL [1]: 0%
- MIC50 (Streptococcus gordonii): 1 µg/mL (≈ 2.96 µM)
- MIC90 (Streptococcus gordonii): 1 µg/mL (≈ 2.96 µM)
- inhibition at 2 µg/mL (Streptococcus sanguinis): 100%
- MIC50 [2]: 1 µg/mL (≈ 2.96 µM)
- MIC90 [2]: 2 µg/mL (≈ 5.93 µM)
- inhibition at 4 µg/mL [3]: 100%
- Inhibition (Listeria monocytogenes): 0%
- inhibition at 0.25 µg/mL (Enterococcus hirae [4]): 0%
- inhibition at 1 µg/mL (Enterococcus hirae [5]): 37.5%
- Inhibition (Corynebacterium sp. [6]): 2.1%
- inhibition at 0.25 µg/mL (Enterococcus gallinarum): 0%
- inhibition at 0.25 µg/mL (Streptococcus oralis): 3.6%
- inhibition at 2 µg/mL (Aerococcus): 100%
- inhibition at 0.5 µg/mL (Streptococcus): 16.6%
- inhibition at 2 µg/mL (Corynebacterium sp. [7]): 100%
- inhibition at 0.12 µg/mL (Enterococcus avium [8]): 0%
- inhibition at 2 µg/mL (Enterococcus avium [9]): 99.1%
- Inhibition [10]: 0%
- inhibition at 2 µg/mL [11]: 100%
- inhibition at 0.5 µg/mL (Corynebacterium striatum [12]): 100%
- MIC50 (Enterococcus avium [13]): 1 µg/mL (≈ 2.96 µM)
- MIC90 (Enterococcus avium [13]): 2 µg/mL (≈ 5.93 µM)
- inhibition at 0.5 µg/mL (Enterococcus avium [14]): 4.3%
- inhibition at 0.12 µg/mL (Streptococcus equinus): 0%
- inhibition at 1 µg/mL [15]: 100%
- inhibition at 0.5 µg/mL (Bacillus sp. [16]): 31.7%
- Inhibition (Bacillus sp. [17]): 0.7%
- inhibition at 1 µg/mL (Micrococcus luteus): 100%
- inhibition at 0.12 µg/mL [18]: 0%
- inhibition at 0.12 µg/mL [19]: 3.4%
- MIC50 (Rothia mucilaginosa): 0.5 µg/mL (≈ 1.48 µM)
- MIC90 (Rothia mucilaginosa): 1 µg/mL (≈ 2.96 µM)
- MIC50 (Bacillus sp. [20]): 1 µg/mL (≈ 2.96 µM)
- MIC90 (Bacillus sp. [20]): 1 µg/mL (≈ 2.96 µM)
- inhibition at 0.25 µg/mL (Corynebacterium striatum [21]): 88%
- inhibition at 0.5 µg/mL (Bacillus cereus): 30%
- inhibition at 2 µg/mL [22]: 100%
- Inhibition (Enterococcus avium [23]): 0%
- MIC50 [24]: 2 µg/mL (≈ 5.93 µM)
- MIC90 [24]: 2 µg/mL (≈ 5.93 µM)
